# From US20200187499A1, “SUBSTITUTED BENZYL-4-AMINOPICOLINIC ESTERS AND PYRIMIDINO-4-CARBOXYLIC ESTERS, METHODS FOR THE PRODUCTION THEREOF, AND USE THEREOF AS HERBICIDES AND PLANT GROWTH REGULATORS” (Bayer CropScience Aktiengesellschaft, priority 2017, published 2020)
# Columns and labels:
# Type in all cases: in vivo
# ABUTH [1] = test: Pre-emergence herbicidal action; settings: 320 g/ha, scored after 3 weeks
# Source text: (§1) Seeds of monocotyledonous and dicotyledonous weed plants and crop plants are laid out in sandy loam soil in wood-fiber pots and covered with soil. The compounds of the invention, formulated in the form of wettable powders (WP) or as emulsion concentrates (EC), are then applied to the surface of the covering soil in the form of an aqueous suspension or emulsion at a water application rate equating to 600 to 800 I/ha, with addition of 0.2% wetting agent. After the treatment, the pots are placed in a greenhouse and kept under good growth conditions for the trial plants. The damage to the test plants is scored visually after a test period of 3 weeks by comparison with untreated controls (herbicidal activity in percent (%): 100% activity=the plants have died, 0% activity=like control plants).
# (§2) At the same time, inventive compounds leave Gramineae crops such as barley, wheat, rye, millet/sorghum, corn or rice virtually undamaged when applied pre-emergence, even at high active ingredient dosages. In addition, some substances are also harmless to dicotyledonous crops such as soya, cotton, oilseed rape, sugar beet or potatoes. […] The tables below illustrate, in an exemplary manner, the pre-emergence herbicidal action of the compounds according to the invention, the herbicidal activity being stated in percent.
# ALOMY = test: Pre-emergence herbicidal action; settings: 320 g/ha, scored after 3 weeks
# Source text: as §1, §2
# AMARE [2] = test: Pre-emergence herbicidal action; settings: 320 g/ha, scored after 3 weeks
# Source text: as §1, §2
# ECHCG [3] = test: Pre-emergence herbicidal action; settings: 320 g/ha, scored after 3 weeks
# Source text: as §1, §2
# POLCO [4] = test: Pre-emergence herbicidal action; settings: Table 2, pre-emergence (PE), 320 g/ha, scored after 3 weeks
# Source text: as §1, §2
# SETVI [5] = test: Pre-emergence herbicidal action; settings: 320 g/ha, scored after 3 weeks
# Source text: as §1, §2
# VIOTR [6] = test: Pre-emergence herbicidal action; settings: Table 2, pre-emergence (PE), 320 g/ha, scored after 3 weeks
# Source text: as §1, §2
# ABUTH [7] = test: Post-emergence herbicidal action; settings: 320 g/ha, assessed after about 3 weeks
# Procedure: (§3) Seeds of monocotyledonous and dicotyledonous weed and crop plants are laid out in sandy loam soil in wood-fiber pots, covered with soil and cultivated in a greenhouse under good growth conditions. 2 to 3 weeks after sowing, the test plants are treated at the one-leaf stage. The compounds of the invention, formulated in the form of wettable powders (WP) or as emulsion concentrates (EC), are then sprayed onto the green parts of the plants in the form of an aqueous suspension or emulsion at a water application rate equating to 600 to 800 l/ha, with addition of 0.2% wetting agent. After the test plants have been left to stand in the greenhouse under optimal growth conditions for about 3 weeks, the action of the preparations is assessed visually in comparison to untreated controls (herbicidal action in percent (%): 100% activity=the plants have died, 0% activity=like control plants). […] At the same time, inventive compounds leave Gramineae crops such as barley, wheat, rye, millet/sorghum, corn or rice virtually undamaged when applied post-emergence, even at high active ingredient dosages. In addition, some substances are also harmless to dicotyledonous crops such as soya, cotton, oilseed rape, sugar beet or potatoes. Some of the compounds according to the invention have high selectivity and are therefore suitable for controlling unwanted vegetation in agricultural crops by the post-emergence method. The tables below illustrate, in an exemplary manner, the post-emergence herbicidal action of the compounds according to the invention, the herbicidal activity being stated in percent.
# AMARE [8] = test: Post-emergence herbicidal action; settings: 320 g/ha, assessed after about 3 weeks
# Procedure: as §3
# SETVI [9] = test: Post-emergence herbicidal action; settings: 320 g/ha, assessed after about 3 weeks
# Procedure: as §3
# STEME = test: Post-emergence herbicidal action; settings: 320 g/ha, assessed after about 3 weeks
# Procedure: as §3
# ECHCG [10] = test: Post-emergence herbicidal action; settings: Table 5, post-emergence (PO), 320 g/ha, assessed after about 3 weeks
# Procedure: as §3
# PHBPU = test: Post-emergence herbicidal action; settings: Table 5, post-emergence (PO), 320 g/ha, assessed after about 3 weeks
# Procedure: as §3
# POLCO [11] = test: Post-emergence herbicidal action; settings: Table 5, post-emergence (PO), 320 g/ha, assessed after about 3 weeks
# Procedure: as §3
# VIOTR [12] = test: Post-emergence herbicidal action; settings: Table 5, post-emergence (PO), 320 g/ha, assessed after about 3 weeks
# Procedure: as §3
SMILES,"Herbicidal action against ABUTH (ABUTH [1]; Table 3, pre-emergence (PE)) [%]","Herbicidal action against ALOMY (ALOMY; Table 3, pre-emergence (PE)) [%]","Herbicidal action against AMARE (AMARE [2]; Table 3, pre-emergence (PE)) [%]","Herbicidal action against ECHCG (ECHCG [3]; Table 3, pre-emergence (PE)) [%]","Herbicidal action against SETVI (SETVI [5]; Table 3, pre-emergence (PE)) [%]","Herbicidal action against ABUTH (ABUTH [7]; Table 5, post-emergence (PO)) [%]","Herbicidal action against AMARE (AMARE [8]; Table 5, post-emergence (PO)) [%]",Herbicidal action against ECHCG (ECHCG [10]) [%],Herbicidal action against PHBPU (PHBPU) [%],Herbicidal action against POLCO (POLCO [11]) [%],"Herbicidal action against SETVI (SETVI [9]; Table 5, post-emergence (PO)) [%]","Herbicidal action against STEME (STEME; Table 5, post-emergence (PO)) [%]",Herbicidal action against VIOTR (VIOTR [12]) [%],"Herbicidal action against AMARE (AMARE [2]; Table 4, pre-emergence (PE)) [%]","Herbicidal action against ECHCG (ECHCG [3]; Table 4, pre-emergence (PE)) [%]",further results
Nc1cc(-c2ccc3occc3c2)nc(C(=O)OCc2cc(F)c(F)cc2F)c1Cl [Example I-06],–,–,–,–,–,–,–,–,–,–,–,–,–,–,–,"Herbicidal action against ABUTH (ABUTH [1]; Table 2, pre-emergence (PE)): 20%; Herbicidal action against ALOMY (ALOMY; Table 2, pre-emergence (PE)): 80%; Herbicidal action against AMARE (AMARE [2]; Table 2, pre-emergence (PE)): 100%; Herbicidal action against ECHCG (ECHCG [3]; Table 2, pre-emergence (PE)): 100%; Herbicidal action against POLCO (POLCO [4]): 100%; Herbicidal action against SETVI (SETVI [5]; Table 2, pre-emergence (PE)): 90%; Herbicidal action against VIOTR (VIOTR [6]): 60%; Herbicidal action against ABUTH (ABUTH [7]; Table 6, post-emergence (PO)): 100%; Herbicidal action against AMARE (AMARE [8]; Table 6, post-emergence (PO)): 100%; Herbicidal action against SETVI (SETVI [9]; Table 6, post-emergence (PO)): 90%; Herbicidal action against STEME (STEME; Table 6, post-emergence (PO)): 100%"
COc1c(F)ccc(COC(=O)c2nc(-c3ccc4ccsc4c3)cc(N)c2Cl)c1F [Example I-08],–,–,–,–,–,–,–,–,–,–,–,–,–,–,–,"Herbicidal action against ABUTH (ABUTH [1]; Table 2, pre-emergence (PE)): 0%; Herbicidal action against ALOMY (ALOMY; Table 2, pre-emergence (PE)): 60%; Herbicidal action against AMARE (AMARE [2]; Table 2, pre-emergence (PE)): 100%; Herbicidal action against ECHCG (ECHCG [3]; Table 2, pre-emergence (PE)): 100%; Herbicidal action against POLCO (POLCO [4]): 100%; Herbicidal action against SETVI (SETVI [5]; Table 2, pre-emergence (PE)): 90%; Herbicidal action against VIOTR (VIOTR [6]): 20%; Herbicidal action against ABUTH (ABUTH [7]; Table 6, post-emergence (PO)): 100%; Herbicidal action against AMARE (AMARE [8]; Table 6, post-emergence (PO)): 100%; Herbicidal action against SETVI (SETVI [9]; Table 6, post-emergence (PO)): 70%; Herbicidal action against STEME (STEME; Table 6, post-emergence (PO)): 100%"
Nc1cc(-c2ccc3ccsc3c2)nc(C(=O)OCc2ccc(F)cc2F)c1Cl [Example I-12],–,–,–,–,–,–,–,–,–,–,–,–,–,–,–,"Herbicidal action against ABUTH (ABUTH [1]; Table 2, pre-emergence (PE)): 20%; Herbicidal action against ALOMY (ALOMY; Table 2, pre-emergence (PE)): 70%; Herbicidal action against AMARE (AMARE [2]; Table 2, pre-emergence (PE)): 100%; Herbicidal action against ECHCG (ECHCG [3]; Table 2, pre-emergence (PE)): 100%; Herbicidal action against POLCO (POLCO [4]): 100%; Herbicidal action against SETVI (SETVI [5]; Table 2, pre-emergence (PE)): 90%; Herbicidal action against VIOTR (VIOTR [6]): 20%; Herbicidal action against ABUTH (ABUTH [7]; Table 6, post-emergence (PO)): 90%; Herbicidal action against AMARE (AMARE [8]; Table 6, post-emergence (PO)): 100%; Herbicidal action against SETVI (SETVI [9]; Table 6, post-emergence (PO)): 100%; Herbicidal action against STEME (STEME; Table 6, post-emergence (PO)): 100%"
Nc1cc(-c2ccc3ccsc3c2)nc(C(=O)OCc2ccc(Cl)cc2)c1Cl [Example I-14],50,30,100,100,80,100,100,90,80,100,90,100,70,–,–,–
Nc1cc(-c2ccc3sccc3c2)nc(C(=O)OCc2ccc(Cl)cc2)c1Cl [Example I-19],70,60,100,50,50,90,100,100,100,0,80,100,80,–,–,–
"Nc1c(Cl)c(C(=O)OCc2cccc(C(F)(F)F)c2)nc(Cl)c1-c1ccc2sccc2c1 [Example I-21, 3-(trifluoromethyl)benzyl 4-amino-6-chloro-(1-benzothiophen-5-yl)-3-chloropyridine-2-carboxylate]",50,40,60,100,80,90,100,90,80,40,90,90,80,–,–,–
COc1c(F)ccc(COC(=O)c2nc(-c3ccc4sccc4c3)cc(N)c2Cl)c1F [Example I-22],20,50,100,90,90,100,100,90,80,90,100,100,80,–,–,–
Nc1c(F)c(-c2ccc3sccc3c2)nc(C(=O)OCc2ccc(F)cc2)c1Cl [Example I-29],70,80,100,80,70,80,100,90,40,90,80,80,50,–,–,–
COc1ccc(COC(=O)c2nc(-c3ccc4ccoc4c3)c(F)c(N)c2Cl)c(OC)c1 [Example I-35],–,–,–,–,–,80,100,90,20,80,100,90,60,100,40,–
Nc1cc(-c2ccc3sccc3c2)nc(C(=O)OCc2cccc(Cl)c2)c1Cl [Example I-40],–,–,–,–,–,90,100,90,80,40,90,80,60,80,10,–
Nc1cc(-c2ccc3ncsc3c2)nc(C(=O)OCc2cccc(F)c2)c1Cl [Example I-41],–,–,–,–,–,100,90,100,70,0,100,100,90,50,90,–
Nc1c(F)c(-c2ccc3ccsc3c2)nc(C(=O)OCc2ccc(F)cc2)c1Cl [Example I-53],–,–,–,–,–,80,100,90,0,80,90,100,10,100,70,–
Nc1c(F)c(-c2ccc3ccsc3c2)nc(C(=O)OCc2c(F)cc(F)cc2F)c1Cl [Example I-55],–,–,–,–,–,60,100,90,0,90,90,90,10,100,40,–
